In brackets after ≈: the same amount, converted by molar mass. Each block holds one molecule with its values, some of them ahead of it.
Tests used:
[1] = tested on: Aspergillus; assay: Antifungal activity against Aspergillus; type: functional
[2] = tested on: Cryptococcus neoformans; assay: Antifungal activity against Cryptococcus neoformans; type: functional; details: Cryptococcus neoformans; read-out: MIC
[3] = tested on: Candida; assay: Antifungal activity against Candida spp.; type: functional
[4] = tested on: Aspergillus fumigatus; assay: Antifungal activity against Aspergillus fumigatus assessed as inhibition of fungal growth incubated for 20 hrs; type: functional
[5] = tested on: Candida parapsilosis; assay: Antifungal activity against Candida parapsilosis; type: functional; details: Lodderomyces parapsilosis
[6] = tested on: Candida albicans; assay: Antifungal activity against Candida albicans; type: functional
[7] = tested on: Candida tropicalis; assay: Antifungal activity against Candida tropicalis; type: functional
[8] = tested on: Nakaseomyces glabratus; assay: Antifungal activity against Candida glabrata; type: functional
[9] = tested on: Pichia kudriavzevii; assay: Antifungal activity against Candida krusei; type: functional
[10] = tested on: Candida albicans; assay: Antifungal activity against Candida albicans assessed as inhibition of fungal growth incubated for 20 hrs; type: functional
[11] = tested on: Candida albicans; assay: In vivo antifungal activity against Candida albicans infected in CDF1 mouse treated po or iv immediately after infection measured on day 7; type: functional; details: 168 h, time 7 day
[12] = tested on: Candida albicans; assay: In vivo antifungal activity against Candida albicans infected in CDF1 mouse treated po or iv 2 hrs after infection twice daily for 2 days measured on day 10; type: functional; details: 240 h, time 10 day
[13] = tested on: Candida albicans; assay: Antifungal activity against Candida albicans TIMM1756 assessed as inhibition of fungal growth incubated for 20 hrs; type: functional
[14] = tested on: Candida albicans; assay: Antifungal activity against Candida albicans TIMM1850 assessed as inhibition of fungal growth incubated for 20 hrs; type: functional
[15] = tested on: Cryptococcus neoformans; assay: Antifungal activity against Cryptococcus neoformans TIMM1740 assessed as inhibition of fungal growth incubated for 68 hrs; type: functional
[16] = tested on: Cryptococcus neoformans; assay: Antifungal activity against Cryptococcus neoformans TIMM1855 assessed as inhibition of fungal growth incubated for 68 hrs; type: functional
[17] = tested on: Aspergillus fumigatus; assay: Antifungal activity against Aspergillus fumigatus TIMM1728 assessed as inhibition of fungal growth incubated for 20 hrs; type: functional
[18] = tested on: Aspergillus fumigatus; assay: Antifungal activity against Aspergillus fumigatus IFO6344 assessed as inhibition of fungal growth incubated for 20 hrs; type: functional
[19] = tested on: Candida albicans; assay: In vivo antifungal activity against Candida albicans infected in CDF1 mouse treated po 4 hrs after injection twice daily for 2 days measured on day 10; type: functional; details: 48 h, time 2 day
[20] = tested on: Aspergillus fumigatus; assay: In vivo antifungal activity against Aspergillus fumigatus infected in CDF1 mouse treated po 4 hrs after injection twice daily for 2 days measured on day 10; type: functional; details: 48 h, time 2 day
[21] = Metabolic stability in ICR mouse plasma assessed as half life by measuring TAK-456 metabolite formation preincubated for 5 mins followed by compound addition measured at 5 to 120 mins by HPLC analysis; type: ADME, cell-free; details: time 5-120 min
[22] = Metabolic stability in Sprague-Dawley rat plasma assessed as half life by measuring TAK-456 metabolite formation preincubated for 5 mins followed by compound addition measured at 5 to 120 mins by HPLC analysis; type: ADME, cell-free; details: time 5-120 min
[23] = Metabolic stability in human plasma assessed as half life by measuring TAK-456 metabolite formation preinubated for 5 mins followed by compound addition measured at 5 to 120 mins by HPLC analysis; type: ADME, cell-free; details: time 5-120 min
[24] = tested on: Aspergillus fumigatus; assay: Antifungal activity against Aspergillus fumigatus in 96-well microplate method; type: functional
[25] = tested on: Aspergillus fumigatus; assay: Antifungal activity against Aspergillus fumigatus; type: functional
[26] = tested on: Nannizzia gypsea; assay: Antifungal activity against Microsporum gypseum; type: functional
[27] = tested on: Nannizzia gypsea; assay: Potency index, ratio of MIC80 for FCZ to ratio of MIC80 for test compound against antifungal activity in Microsporum gypseum; type: functional
[28] = tested on: Candida albicans; assay: Antifungal activity against FCZ-resistant Candida albicans 100; type: functional
[29] = tested on: Candida albicans; assay: Antifungal activity against FCZ-resistant Candida albicans 103; type: functional
[30] = tested on: Aspergillus sp.; assay: Antifungal activity against Aspergillus sp; type: functional; details: Aspergillus sp.; read-out: MIC

MIC [1]: ≤ 0.5 µg/mL
Compound: C[C@@H](C[C@H]1CO[C@H](/C=C/C=C/c2ccc(C(F)(F)F)cc2)OC1)[C@](O)(Cn1cncn1)c1ccc(F)cc1F

MIC [2]: 0.0078 µg/mL (≈ 0.0163 µM)
MIC [3]: 0.0078 µg/mL (≈ 0.0163 µM)
MIC [1]: 1 µg/mL (≈ 2.09 µM)
Compound: C[C@@H](N1CCn2nc(-c3ccc(C#N)nc3)nc2C1)[C@](O)(Cn1cncn1)c1ccc(F)cc1F

MIC [4]: 0.25 µg/mL (≈ 0.533 µM)
Compound: C[C@@H](N1Cc2cc(Br)sc2C1=O)[C@](O)(Cn1cncn1)c1ccc(F)cc1F

MIC [5]: 0.25 µg/mL (≈ 0.433 µM)
MIC [6]: 0.12 µg/mL (≈ 0.208 µM)
MIC [7]: 0.25 µg/mL (≈ 0.433 µM)
MIC [8]: 0.5 µg/mL (≈ 0.866 µM)
MIC [9]: 0.5 µg/mL (≈ 0.866 µM)
Compound: C[C@H](n1nnnc1CCN1CCN(c2cccc(C(F)(F)F)c2)CC1)[C@](O)(Cn1cncn1)c1ccc(F)cc1F

MIC [10]: 0.16 µg/mL (≈ 0.332 µM)
MIC [13]: ≤ 0.001 µg/mL
MIC [14]: ≤ 0.001 µg/mL
MIC [15]: 0.016 µg/mL (≈ 0.0332 µM)
MIC [16]: 0.016 µg/mL (≈ 0.0332 µM)
MIC [17]: 0.25 µg/mL (≈ 0.519 µM)
MIC [18]: 0.25 µg/mL (≈ 0.519 µM)
Compound: C[C@@H](N1CCN(c2ccc(-n3cnnn3)cc2)C1=O)[C@](O)(Cn1cncn1)c1ccc(F)cc1F
ED50 [11]: 0.77 mg/kg
ED50 [12]: 3.56 mg/kg
ED50 [19]: 0.18 mg/kg
ED50 [20]: 4 mg/kg

MIC [10]: 0.016 µg/mL
t1/2 [21]: 5 min
t1/2 [22]: 5 min
t1/2 [23]: 5 min
Compound: CC(=O)OC[n+]1cnn(C[C@](O)(c2ccc(F)cc2F)[C@@H](C)N2CCN(c3ccc(-n4cnnn4)cc3)C2=O)c1.[Cl-]
ED50 [11]: 0.62 mg/kg
ED50 [12]: 4.49 mg/kg

MIC80 [24]: 4 µg/mL (≈ 8.11 µM)
Compound: C[C@@H](N1Cc2sc(-c3ccc(C#N)cn3)nc2C1=O)[C@](O)(Cn1cncn1)c1ccc(F)cc1F

Compound: C[C@@H](OCc1cc(-c2ccc(F)cc2)no1)[C@](O)(Cn1cncn1)c1ccc(F)cc1F
MIC80 [5]: 0.0313 µg/mL (≈ 0.0704 µM)
MIC80 [25]: 4 µg/mL (≈ 9 µM)
MIC80 [6]: 0.0313 µg/mL (≈ 0.0704 µM)
MIC80 [26]: 0.5 µg/mL (≈ 1.13 µM)
Ratio [27]: 64
MIC80 [28]: 8 µg/mL (≈ 18 µM)
MIC80 [29]: 8 µg/mL (≈ 18 µM)

MIC [2]: 0.125 µg/mL (≈ 0.266 µM)
MIC [3]: 0.0625 µg/mL (≈ 0.133 µM)
MIC80 [24]: 4 µg/mL (≈ 8.51 µM)
MIC [30]: 16 µg/mL (≈ 34 µM)
Compound: C[C@@H](N1Cc2sc(Br)nc2C1=O)[C@](O)(Cn1cncn1)c1ccc(F)cc1F

MIC80 [24]: 4 µg/mL (≈ 8.52 µM)
Compound: C[C@@H](N1Cc2sc(-c3cncnc3)nc2C1=O)[C@](O)(Cn1cncn1)c1ccc(F)cc1F

Source: ChEMBL document CHEMBL5126532, “Synthetic approaches and structural diversity of triazolylbutanols derived from voriconazole in the antifungal drug development” (Eur J Med Chem, 2022)
